Results published in ChEMBL document CHEMBL4392870, “Isolation and Biological Activity of 8- Epitetrodotoxin and the Structure of a Possible Biosynthetic Shunt Product of Tetrodotoxin, Cep-226A, from the Newt Cynops ensicauda popei” (J Nat Prod, 2019).

Columns and labels:
[1] = Inhibition of NaV in mouse Neuro2a cells assessed as suppression of ouabain/veratridine-induced reduction in cell viability measured after 20 hrs by WST8 assay
[2] = Inhibition of NaV in mouse Neuro2a cells assessed as suppression of ouabain/veratridine-induced reduction in cell viability measured after 24 hrs by WST8 assay; type: cell-based

| SMILES | EC50 [1] | ED50 (Rana temporaria) | EC50 [2] |
| --- | --- | --- | --- |
| NC1=N[C@H](O)[C@H]2[C@H]3O[C@]4(O)O[C@@H]([C@H](O)[C@@]2(N1)[C@@H]4O)[C@]3(O)CO | 110 nM | – | – |
| NC1=N[C@H](O)[C@H]2[C@H]3O[C@]4(O)O[C@@H]([C@@H](O)[C@@]2(N1)[C@@H]4O)[C@@]3(O)CO | 33 nM | 96 nM | – |
| NC1=N[C@H](O)[C@H]2[C@H]3O[C@]4(O)O[C@@H](C[C@@]2(N1)[C@@H]4O)[C@]3(O)CO | – | – | 250 nM |
| NC1=N[C@H](O)[C@H]2[C@H]3O[C@]4(O)O[C@@H]([C@@H](O)[C@@]2(N1)[C@@H]4O)[C@]3(O)CO [TETRODOTOXIN] | 1.9 nM | 4.1 nM | – |
